From PubChem BioAssay (NCI)
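Interpolation was linear, between the two tested concentrations surrounding the appropriate level; five concentrations were tested over 48 hours in 96-well plates. GI50 is the concentration that inhibits growth by half. TGI is the concentration that stops growth completely.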

Columns and labels:
Assay in all cases: DTP human tumour cell line panel, 48 h
[1] = tested on: OVCAR-5 ovarian
[2] = tested on: HOP-62 NSCLC
[3] = tested on: OVCAR-3 ovarian
[4] = tested on: HT29 colon
[5] = tested on: LOX IMVI melanoma
[6] = tested on: DU-145 prostate
[7] = tested on: ACHN renal
[8] = tested on: A549 NSCLC
[9] = tested on: SK-MEL-5 melanoma
[10] = tested on: U251 CNS

Row | Structure (SMILES) | GI50 [1] [µM] | TGI [1] [µM] | GI50 [2] [µM] | TGI [2] [µM] | GI50 [3] [µM] | TGI [3] [µM] | GI50 [4] [µM] | TGI [4] [µM] | GI50 [5] [µM] | TGI [5] [µM] | GI50 [6] [µM] | TGI [6] [µM] | GI50 [7] [µM] | TGI [7] [µM] | GI50 [8] [µM] | TGI [8] [µM] | GI50 [9] [µM] | TGI [9] [µM] | GI50 [10] [µM] | TGI [10] [µM]
1 | CC1SC2(CCC(c3ccccc3)CC2)N(NC(=O)c2[nH]c3ccc(F)cc3c2-c2ccccc2)C1=O (stereo not given) | 18.5 | 43.8 | 4.59 | 23.5 | 4.33 | 53.8 | 1.67 | 4.18 | 2.9 | 14 | 4.33 | 17.8 | 3.4 | 14.9 | 7.72 | 46.8 | 3.85 | 21.6 | 4.09 | 24
2 | N#Cc1ccsc1NC(=O)COC(=O)c1cccc(S(=O)(=O)N2CCc3ccccc32)c1 | 35.2 | > 100 | 22 | > 100 | 53.7 | > 100 | 14.5 | > 100 | 7.69 | > 100 | 33.7 | > 100 | 50.5 | > 100 | 45.2 | > 100 | 21.1 | > 100 | 11.2 | > 100
3 | CCCCCCCCCCC/C=C\C[C@H](O)C/C=C1/C(=O)C=C[C@@H]1C/C=C\CCCC(=O)OC | 1.7 | 8.58 | 1.01 | 3.51 | 0.671 | 1.49 | 1.03 | 2.85 | 0.536 | 1.05 | 1.35 | 5.57 | 1.23 | 4.9 | 5.96 | 33.3 | 0.603 | 1.17 | 0.581 | 1.53
4 | CCCC[n+]1c(/C=C\c2c(OC)cc(OC)cc2OC)ccc2ccccc21 | 2.26 | 10.3 | 2.58 | 10.5 | 0.515 | 2.57 | 0.663 | 4.09 | 0.827 | 2.58 | 1.04 | 11.1 | 3.01 | 11.8 | 1.18 | 10.5 | 0.299 | 1.29 | 0.353 | 3.66
5 | O=C(O)C1C2C=CC(C2)C1C(=O)O (stereo not given) | > 100 | > 100 | > 100 | > 100 | > 100 | > 100 | > 100 | > 100 | > 100 | > 100 | > 100 | > 100 | > 100 | > 100 | > 100 | > 100 | > 100 | > 100 | > 100 | > 100
6 | c1ccc(Nc2nc(-c3ccccn3)cs2)nc1 | 2.35 | > 100 | 0.619 | > 100 | 0.273 | 19.6 | 0.603 | 21.1 | 0.255 | 6.67 | 0.65 | > 100 | 0.341 | > 100 | 0.623 | > 35 | 0.355 | 6.17 | 0.332 | > 43.2
7 | CSCC[C@H](NC(=O)[C@H](CC(C)C)NC(=O)[C@@H](Cc1ccccc1)NC(=O)CNC(=O)[C@@H](NC(=O)[C@H](C)NC(=O)[C@H](Cc1c[nH]c2ccccc12)NC(=O)[C@H](CCC(N)=O)NC(=O)[C@H](N)CC(N)=O)C(C)C)C(N)=O |  | > 12.5 |  | > 12.5 |  | > 12.5 |  | > 12.5 |  | > 12.5 |  | > 12.5 |  | > 12.5 |  | > 12.5 |  | > 12.5 |  | > 12.5
8 | CCC(C)[C@H](NC(=O)NC(=O)NC(=O)CI)C(=O)OC (stereo not given in full) | 15 | 32.3 | 16.3 | 31.4 | 2.2 | 4.66 | 1.92 | 3.59 | 1.69 | 3.27 | 15.2 | 28.4 | 2.11 | 4.43 | 19.5 | 37 | 16.7 | 30.5 | 14.8 | 27.9
9 | NC(=S)N/N=C/c1ccc(N)cn1 |  | > 10 |  | > 10 |  | > 10 |  | > 10 |  | > 10 |  | 7.76 |  | 7.65 |  | > 10 |  | > 6.95 |  | > 10
10 | O=C1C=CC(=Nc2ccccc2)c2ccccc21 |  | 33.4 |  | 25.3 |  | 7.23 |  | 34.3 |  | 16.9 |  | 3.14 |  | 27.4 |  | 31 |  | 2.6 |  | 20.5
